In patent US20240059689A1, “PURINE DERIVATIVES AS ANTICANCER AGENTS” (Tango Therapeutics, Inc., priority 2021, published 2024):
pIC50: −log10 of the molar value.

Experiments:
USP1-UAF1 = USP1-UAF1 (Homo sapiens, UniProt O94782); assay: Ubiquitin Rhodamine assay of USP1-UAF1 activity; assay type: biochemical
Method: Certain compounds of the disclosure were assessed for USP1-UAF1 activity in a Ubiquitin Rhodamine assay as described in Biology Example 1.

MDA-MB-436 = assay: Viability assay, BRCA1 mutant cell line MDA-MB-436; assay type: cell-based; details: Homo sapiens, MDA-MB-436, viability, BRCA1 mutant MDA-MB-436; read-out: MDA-MB-436 rel IC50
Description: (§1) Table 1 also indicates IC50 values in a viability assay for a non-isogenic pair of BRCA1 mutant (column 5-MDA-MB-436) and BRCA1 WT (column 6—HCC1954) cell lines. These values indicate the effect of treatment with compound on cell survival.

HCC1954 = assay: Viability assay, BRCA1 WT cell line HCC1954; assay type: cell-based; details: Homo sapiens, HCC1954, viability, read-out: HCC1954 rel IC50
Description: as §1

monoubiquitinated PCNA = assay: AlphaLISA assay measuring monoubiquitinated PCNA in MDA-MB-436; assay type: cell-based; details: Homo sapiens, MDA-MB-436, monoubiquitinated PCNA, read-out: Alpha Lisa IC50
Description: Table 1 also indicates IC50 values for exemplary compounds in an AlphaLISA assay measuring monoubiquitinated PCNA in a BRCA1 mutant cell line (MDA-MB-436; column 7).

USP1-UAF1, sequence (O94782 whole entry): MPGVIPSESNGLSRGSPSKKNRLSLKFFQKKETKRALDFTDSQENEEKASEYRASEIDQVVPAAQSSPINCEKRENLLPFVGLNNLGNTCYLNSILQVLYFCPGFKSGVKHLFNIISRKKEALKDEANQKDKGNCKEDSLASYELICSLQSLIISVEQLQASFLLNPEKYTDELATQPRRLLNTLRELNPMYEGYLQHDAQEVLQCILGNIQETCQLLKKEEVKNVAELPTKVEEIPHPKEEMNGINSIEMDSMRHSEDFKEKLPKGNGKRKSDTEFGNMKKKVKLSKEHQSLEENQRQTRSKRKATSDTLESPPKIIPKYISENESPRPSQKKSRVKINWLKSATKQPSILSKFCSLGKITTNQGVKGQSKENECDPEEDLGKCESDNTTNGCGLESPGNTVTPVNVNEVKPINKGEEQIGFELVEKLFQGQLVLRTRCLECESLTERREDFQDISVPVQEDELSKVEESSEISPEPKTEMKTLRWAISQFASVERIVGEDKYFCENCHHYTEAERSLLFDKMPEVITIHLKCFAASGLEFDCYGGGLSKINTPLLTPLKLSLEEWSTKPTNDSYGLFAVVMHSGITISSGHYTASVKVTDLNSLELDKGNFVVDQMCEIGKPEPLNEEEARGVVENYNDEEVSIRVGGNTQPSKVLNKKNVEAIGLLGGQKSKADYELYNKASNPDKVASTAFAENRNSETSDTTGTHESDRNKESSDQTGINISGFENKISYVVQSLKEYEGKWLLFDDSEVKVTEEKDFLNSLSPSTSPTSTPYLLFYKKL
USP1-UAF1, sequence (Q8TAF3 whole entry partner): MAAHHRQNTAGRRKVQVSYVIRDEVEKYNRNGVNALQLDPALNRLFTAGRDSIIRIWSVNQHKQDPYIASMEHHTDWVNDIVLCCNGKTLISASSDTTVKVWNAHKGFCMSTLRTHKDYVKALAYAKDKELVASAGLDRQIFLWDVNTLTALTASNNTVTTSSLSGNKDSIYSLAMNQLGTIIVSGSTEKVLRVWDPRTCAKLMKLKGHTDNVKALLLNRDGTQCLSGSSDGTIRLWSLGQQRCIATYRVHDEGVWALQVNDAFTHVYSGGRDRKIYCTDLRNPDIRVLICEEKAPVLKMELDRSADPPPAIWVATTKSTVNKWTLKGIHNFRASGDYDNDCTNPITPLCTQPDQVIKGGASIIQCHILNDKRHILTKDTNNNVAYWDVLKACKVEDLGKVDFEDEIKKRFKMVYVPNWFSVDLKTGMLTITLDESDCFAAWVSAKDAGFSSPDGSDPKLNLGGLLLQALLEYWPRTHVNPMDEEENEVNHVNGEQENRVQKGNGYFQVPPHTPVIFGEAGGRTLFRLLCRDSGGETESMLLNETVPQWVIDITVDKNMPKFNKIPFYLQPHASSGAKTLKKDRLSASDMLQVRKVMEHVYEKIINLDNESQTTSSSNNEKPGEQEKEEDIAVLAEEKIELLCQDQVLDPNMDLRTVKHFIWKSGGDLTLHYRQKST

| SMILES | pIC50 (USP1-UAF1) | pIC50 (MDA-MB-436) | pIC50 (HCC1954) | pIC50 (monoubiquitinated PCNA) |
| --- | --- | --- | --- | --- |
| CCn1cc(C(F)(F)F)nc1-c1ccc(Cn2c(=N)n(C)c3cnc(-c4ccccc4C(F)(F)F)nc32)cc1 [Example T-063, 9-(4-(1-ethyl-4-(trifluoromethyl)-1H-imidazol-2-yl)benzyl)-7-methyl-2-(2-(trifluoromethyl)phenyl)-7H-purin-8(9H)-imine] | 7.00 to 7.52 | 6.60 to 7.00 | ≤ 5.00 | 6.60 to 7.00 |
| Cc1cc(Cn2c(=N)n(C)c3cnc(-c4ccccc4C(F)(F)F)nc32)ccc1-c1nc(C(F)(F)F)c[nH]1 [Example T-092] | 7.00 to 7.52 | 5.00 to 6.60 | 5.00 to 6.60 | 5.00 to 6.60 |
| COc1nccc(F)c1-c1ncc2c(n1)n(Cc1ccc(-c3nc(C(F)(F)F)cn3C)cc1)c(=N)n2CC(F)(F)F [Example T-121, 2-(4-fluoro-2-methoxy-3-pyridyl)-9-[[4-[1-methyl-4-(trifluoromethyl)imidazol-2-yl]phenyl]methyl]-7-(2,2,2-trifluoroethyl)purin-8-imine] | 7.00 to 7.52 | 6.60 to 7.00 | ≤ 5.00 | 5.00 to 6.60 |
| COc1ncnc(C2CC2)c1-c1ncc2c(n1)n(Cc1ccc(-n3nc(C(F)(F)F)cc3OC)cc1)c(=N)n2CC(F)F [Example T-113, 2-(4-cyclopropyl-6-methoxy-pyrimidin-5-yl)-7-(2,2-difluoroethyl)-9-[[4-[5-methoxy-3-(trifluoromethyl)pyrazol-1-yl]phenyl]methyl]purin-8-imine] | > 7.52 | > 7.00 | ≤ 5.00 | > 7.00 |
| Cc1nc(-c2ccccc2Cl)nc2c1n(C)c(=N)n2Cc1ccc(-c2nc(C(F)(F)F)cn2C)cc1 (single isomer, unassigned) [Example A-15a, 2-(2-chlorophenyl)-6,7-dimethyl-9-(4-(1-methyl-4-(trifluoromethyl)-1H-imidazol-2-yl)benzyl)-7,9-dihydro-8H-purin-8-imine] | 7.00 to 7.52 | 5.00 to 6.60 | ≤ 5.00 | 5.00 to 6.60 |
| COc1ncnc(C2CC2)c1-c1ncc2c(n1)n(Cc1cc(F)c(-c3nc(C(F)(F)F)cn3C)cc1F)c(=N)n2C [Example T-044] | 7.00 to 7.52 | 5.00 to 6.60 | ≤ 5.00 | 6.60 to 7.00 |
| Cn1cc(C(F)(F)F)nc1-c1ccc(Cn2c(=N)n(C)c3cnc(-c4c(OC(F)(F)F)ccnc4C4CC4)nc32)cc1 [Example T-140, 2-[2-cyclopropyl-4-(trifluoromethoxy)-3-pyridyl]-7-methyl-9-[[4-[1-methyl-4-(trifluoromethyl)imidazol-2-yl]phenyl]methyl]purin-8-imine] | 7.00 to 7.52 | > 7.00 | ≤ 5.00 | > 7.00 |
| COc1ncnc(C2CC2)c1-c1ncc2c(n1)n(Cc1ccc(-n3nc(C(F)(F)F)cc3OC)cc1)c(=N)n2C [Example T-078] | > 7.52 | > 7.00 | ≤ 5.00 | > 7.00 |
| CC(C)c1ccccc1-c1nc(-c2ccccn2)c2c(n1)n(Cc1ccc(-c3nc(C(F)(F)F)cn3C)cc1)c(=N)n2C [Example A-35, 2-(2-isopropylphenyl)-7-methyl-9-(4-(1-methyl-4-(trifluoromethyl)-1H-imidazol-2-yl)benzyl)-6-(pyridin-2-yl)-7,9-dihydro-8H-purin-8-imine] | 7.00 to 7.52 | 5.00 to 6.60 | 5.00 to 6.60 | 6.60 to 7.00 |
| Cc1ccc(-c2ncc3c(n2)n(Cc2ccc(-c4nc(C(F)(F)F)cn4C)cc2)c(=N)n3C)c(C(C)C)c1 [Example T-070, 2-(2-isopropyl-4-methyl-phenyl)-7-methyl-9-[[4-[1-methyl-4-(trifluoromethyl)imidazol-2-yl]phenyl]methyl]purin-8-imine] | 7.00 to 7.52 | 5.00 to 6.60 | 5.00 to 6.60 | 5.00 to 6.60 |
